{
  "source": "patent US20070259872A1",
  "about": "“Inhibitors of soluble adenylate cyclase” (priority 2006, published 2007)",
  "biological_target": "soluble, sperm-specific adenylate cyclase (sAC) (Homo sapiens, UniProt Q96PN6)",
  "sequence (Q96PN6 whole entry)": "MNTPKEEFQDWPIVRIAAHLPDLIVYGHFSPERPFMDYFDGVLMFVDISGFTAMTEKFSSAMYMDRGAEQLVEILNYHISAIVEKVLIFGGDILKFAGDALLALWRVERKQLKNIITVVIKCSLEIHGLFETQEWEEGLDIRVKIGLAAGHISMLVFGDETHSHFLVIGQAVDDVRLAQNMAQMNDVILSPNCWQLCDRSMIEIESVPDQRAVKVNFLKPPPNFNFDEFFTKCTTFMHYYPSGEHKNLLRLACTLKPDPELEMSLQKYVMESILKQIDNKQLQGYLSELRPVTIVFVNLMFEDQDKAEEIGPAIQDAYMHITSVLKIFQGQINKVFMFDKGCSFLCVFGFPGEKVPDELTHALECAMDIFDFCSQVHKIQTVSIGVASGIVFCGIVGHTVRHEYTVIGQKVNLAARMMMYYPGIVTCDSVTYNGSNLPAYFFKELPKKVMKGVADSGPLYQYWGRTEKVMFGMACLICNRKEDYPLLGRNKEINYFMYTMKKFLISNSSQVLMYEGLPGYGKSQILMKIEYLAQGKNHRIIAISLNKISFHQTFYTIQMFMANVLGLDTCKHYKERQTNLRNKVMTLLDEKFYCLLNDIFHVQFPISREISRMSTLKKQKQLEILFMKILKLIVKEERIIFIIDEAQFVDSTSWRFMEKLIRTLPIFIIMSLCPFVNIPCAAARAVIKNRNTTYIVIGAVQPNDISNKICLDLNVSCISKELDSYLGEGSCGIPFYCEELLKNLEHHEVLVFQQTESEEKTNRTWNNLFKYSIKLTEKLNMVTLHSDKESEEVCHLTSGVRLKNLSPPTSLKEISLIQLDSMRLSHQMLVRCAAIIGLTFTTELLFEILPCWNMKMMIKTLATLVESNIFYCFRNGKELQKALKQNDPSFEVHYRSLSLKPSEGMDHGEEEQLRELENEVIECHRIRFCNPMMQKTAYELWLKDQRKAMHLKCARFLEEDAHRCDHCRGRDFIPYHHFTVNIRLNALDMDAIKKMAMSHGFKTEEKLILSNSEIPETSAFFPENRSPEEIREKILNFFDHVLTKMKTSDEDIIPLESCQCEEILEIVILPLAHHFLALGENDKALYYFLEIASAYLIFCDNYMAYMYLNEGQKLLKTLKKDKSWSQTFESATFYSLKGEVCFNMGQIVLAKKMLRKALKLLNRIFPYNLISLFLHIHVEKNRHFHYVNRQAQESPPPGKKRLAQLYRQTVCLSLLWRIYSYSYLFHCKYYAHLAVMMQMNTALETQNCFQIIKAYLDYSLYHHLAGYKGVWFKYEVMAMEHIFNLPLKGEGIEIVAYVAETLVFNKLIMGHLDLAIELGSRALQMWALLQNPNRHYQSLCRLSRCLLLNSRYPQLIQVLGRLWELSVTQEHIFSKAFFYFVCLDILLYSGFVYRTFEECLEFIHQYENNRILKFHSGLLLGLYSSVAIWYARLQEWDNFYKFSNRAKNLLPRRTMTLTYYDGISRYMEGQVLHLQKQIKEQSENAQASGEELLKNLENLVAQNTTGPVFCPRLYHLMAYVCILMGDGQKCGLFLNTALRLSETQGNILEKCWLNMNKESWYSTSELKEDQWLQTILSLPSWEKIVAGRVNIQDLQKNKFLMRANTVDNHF",
  "assay": "sAC-Assay (HTRF cAMP detection)",
  "type": "biochemical",
  "details": "read-out: IC50 (inhibition of the soluble adenylate cyclase)",
  "from_the_text": "In a suitable buffer system, the soluble, sperm-specific adenylate cyclase catalyzes the reaction of adenosine triphosphate (ATP) to cyclic adenosine monophosphate (cAMP) and pyrophosphate. Free cAMP that is generated in this way is then used in a competitive detection process, in which the binding of a europium kryptate (Eu[K])-labeled anti-cAMP antibody (anti cAMP-Eu[K]-AK) to a cAMP-molecule-labeled, modified allophycocyanine-1 molecule (cAMP-XL665) is prevented. In the absence of exogenic cAMP, after excitation at 335 nm, it results in a fluorescence resonance energy transfer (FRET) between the anti cAMP-Eu[K]-AK (FRET-donor) and the cAMP-XL665 molecule (FRET-acceptor). This process is quantified at different times (time-resolved) based on the emission of FRET-acceptor XL665 (665 nm and 620 nm). A signal drop (measured as a wave ratio; calculation formula: [(E665 nm/E620 nm)×10000]) can be attributed to the presence of cAMP and thus to the activity of sAC.\nFirst, 1.5 μl of the test substance (in 30% DMSO), only 30% DMSO in the solvent controls, is introduced per recess in a 384-hole test plate (polystyrene; 384, NV). […]\nAfter an additional incubation of 90 minutes at room temperature, the HTRF result is measured either on the Packard Discovery or with the RubiStar HTRF measuring device (Delay: 50 μs; Integration time: 400 μs).",
  "data": [
    {"smiles": "CC(C)(C)c1ccc(NS(=O)(=O)c2ccc3[nH]c(C(=O)NC4CCOCC4)c(-c4ccccc4)c3c2)cc1", "values": [
      {"measurement": "IC50", "result": 3000, "unit": "nM"}
    ]},
    {"smiles": "CC(O)CNC(=O)c1[nH]c2ccc(S(=O)(=O)Nc3ccc(C(C)(C)C)cc3)cc2c1-c1ccccc1", "note": "(racemic)", "values": [
      {"measurement": "IC50", "result": 1600, "unit": "nM"}
    ]}
  ]
}
